Test results: patent US10597388B2, “Pyridazinone herbicides” (FMC CORPORATION, priority 2014, dated 2020)

What was measured:
Type in all cases: in vivo
[1] = test system: waterhemp_RES2 (ALS & HPPD resistant common waterhemp, Amaranthus rudis); experiment: Test E greenhouse herbicide test, postemergence
In short: (§1)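 Postemergence spray on potted plants, 1–4 leaves, 2–18 cm; greenhouse 14–21 d; visual rating vs controls, 0 (no effect) to 100 (complete control).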

[2] = test system: waterhemp_RES1 (ALS & Triazine resistant common waterhemp, Amaranthus rudis); experiment: Test E greenhouse herbicide test, postemergence
In short: as §1

[3] = test system: waterhemp (common waterhemp, Amaranthus rudis); experiment: Test E greenhouse herbicide test, pre- and postemergence
In short: (§2)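 Pre- and postemergence sprays, same solvent–surfactant formulation. Substrate: silt loam (pre), peat-based mix (post, 1–4 leaf, 2–18 cm). Readout: visual control rating 0–100 against controls at 14–21 d.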

[4] = test system: ragweed (common ragweed, Ambrosia elatior); experiment: as above
In short: as §2

[5] = test system: beggarticks (hairy beggarticks, Bidens pilosa); experiment: as above
In short: as §2

[6] = test system: dayflower (Virginia (VA) dayflower, Commelina virginica); experiment: as above
In short: as §2

[7] = test system: pigweed, palmer (palmer pigweed, Amaranthus palmeri); experiment: as above
In short: as §2

[8] = test system: momingglory (Ipomoea coccinea); experiment: as above; conditions: Preemergence
In short: as §2

[9] = test system: nutsedge, yellow (yellow nutsedge, Cyperus esculentus); experiment: as above; conditions: Preemergence
In short: as §2

[10] = test system: field bindweed (Convolvulus arvensis); experiment: as above
In short: as §2

[11] = test system: johnsongrass (Sorghum halepense); experiment: as above; conditions: Preemergence
In short: as §2

soybean (Glycine max) = experiment: as above
In short: as §2

[12] = 31 g ai/ha, visual, scale 0 no effect to 100 complete control
[13] = 62 g ai/ha, scale 0 to 100 (0 no effect, 100 complete control)
[14] = 125 g ai/ha, scale 0 to 100 (0 no effect, 100 complete control)
[15] = 250 g ai/ha, scale 0 to 100 (0 no effect, 100 complete control)
[16] = 62 g ai/ha, Postemergence, scale 0 to 100 (0 no effect, 100 complete control)
[17] = 62 g ai/ha, Preemergence, scale 0 to 100 (0 no effect, 100 complete control)
[18] = 125 g ai/ha, Postemergence, scale 0 to 100 (0 no effect, 100 complete control)
[19] = 125 g ai/ha, Preemergence, scale 0 to 100 (0 no effect, 100 complete control)
[20] = 250 g ai/ha, Postemergence, scale 0 to 100 (0 no effect, 100 complete control)
[21] = Postemergence, 31 g ai/ha, visual, scale 0 no effect to 100 complete control
[22] = Preemergence, 31 g ai/ha, scale 0 to 100, 0 no effect, 100 complete control
[23] = Preemergence, 250 g ai/ha, visual, scale 0 no effect to 100 complete control
[24] = Preemergence, 125 g ai/ha, visual, scale 0 no effect to 100 complete control
[25] = 31 g ai/ha, scale 0 to 100, 0 no effect, 100 complete control
[26] = 250 g ai/ha, visual, scale 0 no effect to 100 complete control
[27] = 125 g ai/ha, visual, scale 0 no effect to 100 complete control

Compound: CC(=O)Oc1c(C)nn(C)c(=O)c1-c1c(C)sc2ccc(C)cc12 [Compound 25]
- Plant response rating, Waterhemp_RES2 [1, 12]: 70
- Plant response rating, Waterhemp_RES2 [1, 13]: 60
- Plant response rating, Waterhemp_RES2 [1, 14]: 70
- Plant response rating, Waterhemp_RES2 [1, 15]: 75
- Plant response rating, Waterhemp_RES1 [2, 12]: 75
- Plant response rating, Waterhemp_RES1 [2, 13]: 80
- Plant response rating, Waterhemp_RES1 [2, 14]: 85
- Plant response rating, Waterhemp_RES1 [2, 15]: 95
- Plant response rating, Waterhemp [3, 16]: 80
- Plant response rating, Waterhemp [3, 17]: 100
- Plant response rating, Waterhemp [3, 18]: 85
- Plant response rating, Waterhemp [3, 19]: 100
- Plant response rating, Waterhemp [3, 20]: 90
- Plant response rating, Waterhemp [3, 21]: 80
- Plant response rating, Waterhemp [3, 22]: 100
- Plant response rating, Waterhemp [3, 23]: 100
- Plant response rating, Ragweed [4, 16]: 90
- Plant response rating, Ragweed [4, 17]: 95
- Plant response rating, Ragweed [4, 18]: 90
- Plant response rating, Ragweed [4, 19]: 98
- Plant response rating, Ragweed [4, 20]: 95
- Plant response rating, Ragweed [4, 21]: 90
- Plant response rating, Ragweed [4, 22]: 75
- Plant response rating, Ragweed [4, 23]: 100
- Plant response rating, Beggarticks [5, 16]: 100
- Plant response rating, Beggarticks [5, 17]: 100
- Plant response rating, Beggarticks [5, 18]: 100
- Plant response rating, Beggarticks [5, 20]: 100
- Plant response rating, Beggarticks [5, 21]: 100
- Plant response rating, Beggarticks [5, 22]: 100
- Plant response rating, Beggarticks [5, 24]: 100
- Plant response rating, Beggarticks [5, 23]: 100
- Plant response rating, Dayflower, VA [6, 16]: 40
- Plant response rating, Dayflower, VA [6, 17]: 5
- Plant response rating, Dayflower, VA [6, 18]: 50
- Plant response rating, Dayflower, VA [6, 20]: 65
- Plant response rating, Dayflower, VA [6, 21]: 10
- Plant response rating, Dayflower, VA [6, 22]: 0
- Plant response rating, Dayflower, VA [6, 24]: 15
- Plant response rating, Dayflower, VA [6, 23]: 30
- Plant response rating, Pigweed, Palmer [7, 16]: 80
- Plant response rating, Pigweed, Palmer [7, 17]: 90
- Plant response rating, Pigweed, Palmer [7, 18]: 100
- Plant response rating, Pigweed, Palmer [7, 19]: 100
- Plant response rating, Pigweed, Palmer [7, 20]: 85
- Plant response rating, Pigweed, Palmer [7, 21]: 75
- Plant response rating, Pigweed, Palmer [7, 22]: 65
- Plant response rating, Pigweed, Palmer [7, 23]: 100
- Plant response rating, Morningglory [8, 13]: 70
- Plant response rating, Morningglory [8, 14]: 95
- Plant response rating, Morningglory [8, 25]: 65
- Plant response rating, Morningglory [8, 26]: 100
- Plant response rating, Nutsedge, Yellow [9, 13]: 20
- Plant response rating, Nutsedge, Yellow [9, 14]: 20
- Plant response rating, Nutsedge, Yellow [9, 25]: 0
- Plant response rating, Nutsedge, Yellow [9, 26]: 65
- Plant response rating, Field Bindweed [10, 16]: 95
- Plant response rating, Field Bindweed [10, 17]: 98
- Plant response rating, Field Bindweed [10, 18]: 95
- Plant response rating, Field Bindweed [10, 20]: 90
- Plant response rating, Field Bindweed [10, 21]: 90
- Plant response rating, Field Bindweed [10, 22]: 80
- Plant response rating, Field Bindweed [10, 24]: 60
- Plant response rating, Field Bindweed [10, 23]: 98
- Plant response rating, Johnsongrass [11, 13]: 60
- Plant response rating, Johnsongrass [11, 25]: 75
- Plant response rating, Johnsongrass [11, 27]: 80
- Plant response rating, Johnsongrass [11, 26]: 90
- Plant response rating, Soybean (soybean (Glycine max); [16]): 20
- Plant response rating, Soybean (soybean (Glycine max); [18]): 30
- Plant response rating, Soybean (soybean (Glycine max); [19]): 0
- Plant response rating, Soybean (soybean (Glycine max); [20]): 75
- Plant response rating, Soybean (soybean (Glycine max); [21]): 0
- Plant response rating, Soybean (soybean (Glycine max); [22]): 0
- Plant response rating, Soybean (soybean (Glycine max); [23]): 70

Compound: CCC(=O)Oc1c(C)nn(C)c(=O)c1-c1c(C)sc2c(C)cc(C)cc12 [Compound 28]
- Plant response rating, Waterhemp_RES2 [1, 14]: 50
- Plant response rating, Waterhemp_RES2 [1, 15]: 50
- Plant response rating, Waterhemp_RES1 [2, 14]: 60
- Plant response rating, Waterhemp_RES1 [2, 15]: 80
- Plant response rating, Waterhemp [3, 17]: 80
- Plant response rating, Waterhemp [3, 18]: 70
- Plant response rating, Waterhemp [3, 19]: 98
- Plant response rating, Waterhemp [3, 20]: 75
- Plant response rating, Waterhemp [3, 22]: 65
- Plant response rating, Waterhemp [3, 23]: 100
- Plant response rating, Ragweed [4, 17]: 90
- Plant response rating, Ragweed [4, 18]: 70
- Plant response rating, Ragweed [4, 19]: 95
- Plant response rating, Ragweed [4, 20]: 75
- Plant response rating, Ragweed [4, 22]: 95
- Plant response rating, Ragweed [4, 23]: 98
- Plant response rating, Beggarticks [5, 17]: 100
- Plant response rating, Beggarticks [5, 18]: 100
- Plant response rating, Beggarticks [5, 20]: 100
- Plant response rating, Beggarticks [5, 22]: 100
- Plant response rating, Beggarticks [5, 24]: 100
- Plant response rating, Beggarticks [5, 23]: 100
- Plant response rating, Dayflower, VA [6, 17]: 10
- Plant response rating, Dayflower, VA [6, 18]: 70
- Plant response rating, Dayflower, VA [6, 20]: 80
- Plant response rating, Dayflower, VA [6, 22]: 5
- Plant response rating, Dayflower, VA [6, 24]: 65
- Plant response rating, Dayflower, VA [6, 23]: 70
- Plant response rating, Pigweed, Palmer [7, 17]: 65
- Plant response rating, Pigweed, Palmer [7, 18]: 50
- Plant response rating, Pigweed, Palmer [7, 19]: 95
- Plant response rating, Pigweed, Palmer [7, 20]: 50
- Plant response rating, Pigweed, Palmer [7, 22]: 0
- Plant response rating, Pigweed, Palmer [7, 23]: 98
- Plant response rating, Morningglory [8, 13]: 90
- Plant response rating, Morningglory [8, 14]: 95
- Plant response rating, Morningglory [8, 25]: 50
- Plant response rating, Morningglory [8, 26]: 100
- Plant response rating, Nutsedge, Yellow [9, 13]: 20
- Plant response rating, Nutsedge, Yellow [9, 14]: 70
- Plant response rating, Nutsedge, Yellow [9, 25]: 20
- Plant response rating, Nutsedge, Yellow [9, 26]: 95
- Plant response rating, Field Bindweed [10, 17]: 0
- Plant response rating, Field Bindweed [10, 18]: 60
- Plant response rating, Field Bindweed [10, 20]: 80
- Plant response rating, Field Bindweed [10, 22]: 0
- Plant response rating, Field Bindweed [10, 24]: 90
- Plant response rating, Field Bindweed [10, 23]: 75
- Plant response rating, Johnsongrass [11, 13]: 80
- Plant response rating, Johnsongrass [11, 25]: 70
- Plant response rating, Johnsongrass [11, 27]: 80
- Plant response rating, Johnsongrass [11, 26]: 90
- Plant response rating, Soybean (soybean (Glycine max); [17]): 0
- Plant response rating, Soybean (soybean (Glycine max); [18]): 50
- Plant response rating, Soybean (soybean (Glycine max); [19]): 0
- Plant response rating, Soybean (soybean (Glycine max); [20]): 60
- Plant response rating, Soybean (soybean (Glycine max); [22]): 0
- Plant response rating, Soybean (soybean (Glycine max); [23]): 0
